Data as given in patent publication US20260097022A1, “COMPOUNDS AND USES THEREOF” (Integrated Biosciences, Inc., priority 2023, published 2026).

What was measured:
[1] = tested on: HepG2 cells; experiment: Cytotoxicity against HepG2 cells (resazurin); assay type: cell-based, human; conditions: 3 days treatment, curve-fitting, two biological replicates
Method: (§1) Measuring cytotoxicity against HepG2 and HEK293 cells. Cytotoxicity in human embryonic kidney (HEK293) and liver carcinoma (HepG2) cells was assayed as above using a resazurin assay. Cells were obtained from ATCC (ATCC CRL-1573 and HB-8065), passaged <10 times, and grown in Dulbecco's modification of Eagle's Medium (DMEM: Corning 10^−013-CV) supplemented with 10% FBS and 1% penicillin-streptomycin. 99 μL of cells were plated into each well of a 96-well clear flat-bottom, black polystyrene tissue-culture-treated plate at a density of ˜10+ cells/well, and plates were incubated overnight for adhesion. The day after plating. 1 μL of each compound, prepared as two-fold serial dilutions of 5 mM stock solutions in DMSO, was added to each well. Cells were incubated for 3 days, after which resazurin was added to each well to a final concentration of 0.15 mM. After an additional 1 day of incubation, the fluorescence excitation/emission at 550/590 nm was read using a SpectraMax M3 plate reader. Experiments were performed in biological duplicate. IC50 values were determined by normalizing with respect to the fluorescence intensity values of untreated control cells on day 3, as described in Calculation of cellular viability values in dose-response curves above.

[2] = target: T1, Bcl-2 (Homo sapiens, UniProt P10415); experiment: BCL-2 TR-FRET, inhibition of Bcl-2 binding to a peptide ligand; conditions: at micromolar concentrations
T1 construct: purchased BPS Bioscience 50222
T1 sequence (P10415 whole entry): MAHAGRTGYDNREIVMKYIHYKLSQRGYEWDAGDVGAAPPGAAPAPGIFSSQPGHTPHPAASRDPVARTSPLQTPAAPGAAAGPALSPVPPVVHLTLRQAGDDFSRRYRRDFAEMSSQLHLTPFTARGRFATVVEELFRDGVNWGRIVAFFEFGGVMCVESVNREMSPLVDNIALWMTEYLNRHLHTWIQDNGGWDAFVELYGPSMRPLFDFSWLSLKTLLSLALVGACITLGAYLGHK
Method: BCL-2 TR-FRET. Inhibition of Bcl-2 binding to a peptide ligand was measured using the BCL-2 TR-FRET Assay Kit from BPS Bioscience (BPS Bioscience 50222). Briefly, the provided BCL TR-FRET assay buffer was diluted 1:3 with ultrapure Milli-Q water. The anti-His terbium-labeled donor and dye-labeled acceptor were each diluted 1:100 with diluted assay buffer. The BCL-2 peptide ligand was thawed on ice and diluted 1:40 with diluted assay buffer, and BCL-2 protein was diluted with diluted assay buffer to a working concentration of 1 ng/μL. Test compounds at the indicated final concentrations were prepared as stock 10% DMSO solutions in ultrapure Milli-Q water. The reaction was performed by combining 5 μL diluted donor. 5 μL diluted acceptor. 2 μL test compound. 5 μL diluted ligand, and 3 μL diluted protein in each well of the provided white, flat-bottom 384-well plate. Positive control reactions had 2 μL 10% DMSO in water in lieu of test compound. Negative control reactions had 2 μL 10% DMSO in water and 5 μL diluted assay buffer in lieu of test compound and diluted ligand. Reactions were incubated at room temperature for 3 hours, and fluorescent intensities were measured using a SpectraMax® M5 plate reader and manufacturer software (SoftMax Pro 6) with the following TR-FRET settings; for terbium-labeled donor emission, ex/em. 340/620 nm: lag time. 100 μs: integration time. 500 μs: for dye-acceptor emission, ex/em. 340/665 nm: lag time. 100 μs; integration time. 500 μs. The TR-FRET ratio. 665 nm emission/620 nm emission, was calculated for all reactions, and percentage activity was calculated by linearly interpolating the positive and negative control TR-FRET ratio values between relative activity values of 0) and 1. Experiments were performed in biological duplicate and repeated on independent occasions.

[3] = tested on: human red blood cells; experiment: Hemolysis assay; assay type: cell-based; conditions: up to a final concentration of 100 μM; 1 h at 37° C.
Method: Hemolysis assay. Whole human blood containing EDTA (Innovative Resarch IWB1K2E) was centrifuged at 120×g at 4° C., for 5 min and resuspended in Dulbecco's PBS (DPBS: VWR 02-0119-0500). These washing steps were repeated until the supernatant was clear. Red blood cells were then resuspended in DPBS to 5×10^8 cells/mL, and 100 μL of cells was plated into each well of a 96-well clear round-bottom plate. Compounds were added to the indicated concentrations, and DMSO was used as a vehicle. Samples were incubated for 1 h at 37° C., without shaking, after which plates were centrifuged at 1500×g at room temperature for 5 min to pellet cells. 60 μL of the supernatant from each sample was then transferred to a 96-well clear flat-bottom plate, and the absorbance was read at 405 nm using a SpectraMax M3 plate reader to quantify the amount of soluble hemoglobin. Fractional hemolysis was determined by linearly interpolating absorbance values with respect to a positive control (saturation with 10% Triton X-100) and a negative control (1% DMSO vehicle). Results are depicted in FIG. 14.

[4] = tested on: HEK293 cells; experiment: Cytotoxicity against HEK293 cells (resazurin); assay type: cell-based, human; conditions: 3 days treatment, curve-fitting, two biological replicates
Method: as §1

Compound: COc1ccc(C(=O)Nc2ccc3nc(SCC(=O)Nc4ccccc4F)sc3c2)cc1OC [compound 6]
- IC50 ([1]; Homo sapiens, HepG2, 72 h): 421 µM
- inhibition of Bcl-2 binding activity to a peptide ligand [2]: inhibited Bcl-2
- hemolysis [3]: did not induce significant hemolysis
- IC50 ([4]; Homo sapiens, HEK293, 72 h): 21.4 µM

Compound: Cc1ccccc1C(=O)Nc1ccc2nc(SCC(=O)Nc3ccccc3)sc2c1 [compound 19]
- IC50 ([1]; Homo sapiens, HepG2, 72 h): 383 µM
- inhibition of Bcl-2 binding activity to a peptide ligand [2]: inhibited Bcl-2
- hemolysis [3]: did not induce significant hemolysis
- IC50 ([4]; Homo sapiens, HEK293, 72 h): 160 µM

Compound: O=C(Nc1ccc(S(=O)(=O)Nc2ncccn2)cc1)c1ccc(-c2ccccc2)cc1 [BRD-K20733377]
- IC50 [1]: 70.3 µM
- inhibition of Bcl-2 binding activity to a peptide ligand [2]: inhibited Bcl-2
- hemolysis [3]: did not induce significant hemolysis
- IC50 [4]: 51.1 µM
